Source: the supplement of paper PMC10307832

Legend:
Assay in all cases: relative viability (nuclei count vs DMSO), 5 days (fraction); higher = more cells survive
[1] = compound: CC1=C(CC(=O)O)c2cc(F)ccc2/C1=C\c1ccc([S+](C)[O-])cc1 [Sulindac] + CC(C)C[C@H](NC(=O)[C@H](Cc1ccccc1)NC(=O)c1cnccn1)B(O)O [Bortezomib] (partner 0.002 µM)
Method in brief: (§1)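 Relative viability equals treated-well nuclei counts divided by vehicle-well nuclei counts. Counts came from 4× images of lung cancer cell lines grown in 1536-well plates for 5 days after pin-tool dosing on the day after seeding. Dosing used one drug alone or a fixed anchor-drug dose plus five library-drug doses (not always all listed) in √10 steps, and values are medians of duplicate plates.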

[2] = compound: CC1=C(CC(=O)O)c2cc(F)ccc2/C1=C\c1ccc([S+](C)[O-])cc1 [Sulindac] + COc1cc2c(Oc3ccc(NC(=O)C4(C(=O)Nc5ccc(F)cc5)CC4)cc3F)ccnc2cc1OCCCN1CCOCC1 [Foretinib] (partner 0.25 µM)
Method in brief: as §1

[3] = compound: CN[C@@H]1C[C@H]2O[C@@](C)([C@@H]1OC)n1c3ccccc3c3c4c(c5c6ccccc6n2c5c31)C(=O)NC4 [Staurosporine] + Cc1cc(Nc2cc(N3CCN(C)CC3)nc(Sc3ccc(NC(=O)C4CC4)cc3)n2)n[nH]1 [Tozasertib] (partner 0.1 µM)
Method in brief: as §1

[4] = compound: O=c1[nH]cc(F)c(=O)[nH]1 [5-Fluorouracil] + O=C(CCCCCCC(=O)Nc1ccccc1)NO [Vorinostat] (partner 1 µM)
Method in brief: as §1

Cell Line	relative viability ([1]; first compound 0.08 µM)	relative viability ([1]; first compound 0.253 µM)	relative viability ([1]; first compound 0.8 µM)	relative viability ([1]; first compound 2.53 µM)	relative viability ([1]; first compound 8 µM)	relative viability ([2]; first compound 0.08 µM)	relative viability ([2]; first compound 0.253 µM)	relative viability ([2]; first compound 0.8 µM)	relative viability ([2]; first compound 2.53 µM)	relative viability ([2]; first compound 8 µM)	relative viability ([3]; first compound 0.005 µM)	relative viability ([3]; first compound 0.05 µM)	relative viability ([3]; first compound 0.1581 µM)	relative viability ([3]; first compound 0.5 µM)	relative viability ([4]; first compound 0.02 µM)	relative viability ([4]; first compound 0.2 µM)	relative viability ([4]; first compound 0.6325 µM)	relative viability ([4]; first compound 2 µM)	relative viability ([3]; first compound 0.01581 µM)
HCC-366	1.9	1.06	0.306	1	1.33	0.838	0.964	0.999	0.994	0.998	0.144	0.0425	0.0279	0.0464	0.371	0.365	0.156	0.0639	–
HCC-827	1.01	1.13	0.93	1.06	1.11	1.03	1.05	1.1	1.01	1.09	0.442	0.358	0.329	0.263	0.556	0.697	0.348	0.272	0.313
HOP-62	0.913	1.03	1.02	0.809	0.564	1.18	1.1	–	1.23	1.25	0.349	0.114	0.128	0.103	0.629	0.699	0.626	0.509	0.237
IA-LM	0.811	0.91	–	0.977	0.89	1.23	1.19	–	1.2	1.3	–	–	–	–	0.906	0.659	0.274	0.25	–
LC-2-ad	1.31	0.992	0.969	0.97	1.12	0.855	1.01	0.877	0.872	1.02	0.435	0.253	0.219	0.161	0.697	0.589	0.42	0.256	0.239
LCLC-97TM1	0.861	0.946	–	0.788	0.806	0.939	0.992	0.804	0.803	0.962	0.277	0.181	0.199	0.221	0.575	1.07	0.857	0.272	0.139
LCLC-103H	1.24	1.11	0.948	1.05	1.21	0.817	0.822	0.681	0.734	0.916	0.534	0.174	0.128	0.146	0.808	0.829	0.673	0.469	0.207
LK-2	–	–	–	–	–	1.73	1.45	–	–	1.21	0.164	0.156	0.149	0.151	0.275	0.3	0.303	0.304	–
LOU-NH91	0.554	0.516	0.601	0.531	0.459	0.859	0.964	0.876	0.935	1.11	0.727	0.375	0.302	0.191	0.937	0.988	0.607	0.35	0.483
NCI-H358	–	–	–	–	–	0.85	0.763	0.572	0.621	0.826	0.0876	0.0699	0.0598	0.0619	0.837	0.664	0.529	0.192	0.0765
NCI-H522	–	–	–	–	–	–	–	–	–	–	0.541	0.492	0.433	0.486	0.884	1.02	0.982	0.81	–
NCI-H1299	1.09	1.04	1.04	1.03	1.05	1.13	1.09	1.06	1.02	1.15	–	–	–	–	–	–	–	–	–
NCI-H1395	–	–	–	–	–	0.845	1.02	0.949	0.906	1.1	0.705	0.37	0.331	0.265	0.728	0.755	0.645	0.756	0.614
NCI-H1563	0.848	0.876	0.793	0.779	0.925	0.98	1.02	0.912	0.89	0.99	–	–	–	–	–	–	–	–	–
NCI-H1623	–	–	–	–	–	0.875	0.779	0.637	0.873	0.923	0.491	0.406	0.425	0.277	–	–	–	–	0.495
NCI-H1648	–	–	–	–	–	–	–	–	–	–	0.236	0.169	0.214	0.243	0.482	0.389	0.495	0.263	0.185
NCI-H1703	0.303	0.394	0.225	0.457	0.284	0.276	0.389	0.355	0.382	0.377	–	–	–	–	–	–	–	–	–
NCI-H1792	1.24	0.995	–	0.987	1.24	–	–	–	–	–	–	–	–	–	–	–	–	–	–
NCI-H1793	–	–	–	–	–	0.759	0.808	0.54	0.748	0.736	0.335	0.299	0.182	0.186	0.801	0.814	0.723	0.502	–
NCI-H1944	–	–	–	–	–	0.962	0.874	0.822	0.974	1.03	0.255	0.206	0.161	0.155	0.5	0.372	0.201	0.164	0.21
NCI-H2170	–	–	–	–	–	1.1	0.547	1.05	0.978	1.01	0.756	0.429	0.181	0.181	0.796	0.704	0.33	0.292	–
NCI-H2342	–	–	–	–	–	0.86	0.952	1.02	0.948	1.07	0.406	0.295	0.305	0.278	0.903	0.86	0.741	0.616	0.495
SK-MES-1	–	–	–	–	–	1.13	1.38	0.372	0.88	1.02	0.52	0.149	0.125	0.125	1.2	0.404	0.306	0.302	0.327
SW 900	–	–	–	–	–	–	0.645	–	0.948	1.11	0.541	0.246	0.206	0.162	0.628	0.575	0.562	0.4	0.239
